Measured values from ChEMBL document CHEMBL4177738, “Synthesis and evaluation of a class of 1,4,7-triazacyclononane derivatives as iron depletion antitumor agents” (Bioorg Med Chem Lett, 2018).
Activity calls are given as the source filed them. The rule behind the calls is not given here.

How the values were obtained:
[1] = tested on: HepG2; test: Antiproliferative activity against human HepG2 cells assessed as reduction in cell viability at 50 uM incubated for 72 hrs by MTT assay; type: functional; details: HepG2, 72 h
[2] = tested on: HepG2; test: Antiproliferative activity against human HepG2 cells assessed as reduction in cell viability at 50 uM incubated for 72 hrs in presence of 50 uM iron chloride by MTT assay; type: functional, cell-based
[3] = tested on: HepG2; test: Antiproliferative activity against human HepG2 cells assessed as reduction in cell viability incubated for 72 hrs by MTT assay; type: functional, cell-based; details: HepG2, 72 h
[4] = tested on: L02; test: Antiproliferative activity against human LO2 cells assessed as reduction in cell viability at 50 uM incubated for 72 hrs by MTT assay; type: cell-based; details: l02, 72 h
[5] = tested on: L02; test: Increase in cell viability in human LO2 cells at 50 uM incubated for 72 hrs by MTT assay relative to untreated control; type: functional

O=C(O)CN1CCN(CCn2cccc(O)c2=O)CCN(CC(=O)O)CC1
inhibition at 50 µM [1]: 80% | inhibition [2]: inactive | IC50 [3]: 6.9 µM | Activity [4]: Non-Toxic | fold change (FC) [5]: 3 - 8

O=C(O)CN(CCN1CCN(CP(=O)(O)O)CCN(CP(=O)(O)O)CC1)CC(=O)O
IC50 [3]: 3.8 µM | Activity [4]: Non-Toxic | fold change (FC) [5]: 3 - 8

O=C(O)CN1CCN(CCCn2cccc(O)c2=O)CCN(CC(=O)O)CC1
inhibition at 50 µM [1]: 80% | inhibition [2]: inactive | IC50 [3]: 4.5 µM | Activity [4]: Non-Toxic | fold change (FC) [5]: 3 - 8

Nc1ccc(CCCN(CCN2CCN(CC(=O)O)CCN(CC(=O)O)CC2)CC(=O)O)cc1
IC50 [3]: 1.5 µM | Activity [4]: Non-Toxic | fold change (FC) [5]: 3 - 8

O=C(O)CN(CCCc1ccc([N+](=O)[O-])cc1)CCN1CCN(CC(=O)O)CCN(CC(=O)O)CC1
IC50 [3]: 1.4 µM | Activity [4]: Non-Toxic | fold change (FC) [5]: 3 - 8

CC(=O)N(O)CCCCCNC(=O)CCC(=O)N(O)CCCCCNC(=O)CCC(=O)N(O)CCCCCN [DEFEROXAMINE]
inhibition at 50 µM [1]: 40% | inhibition [2]: inactive | IC50 [3]: > 100 µM | Activity [4]: Non-Toxic

O=C(O)CN1CCN(CC(=O)O)CCN(CC(Cc2ccc([N+](=O)[O-])cc2)N(CC(=O)O)CC(=O)O)CC1 (stereo not given)
IC50 [3]: 8.2 µM | Activity [4]: Non-Toxic | fold change (FC) [5]: 3 - 8

O=C(O)CN(CCN(CC(=O)O)CC(=O)O)CCN(CC(=O)O)CC(=O)O [PENTETIC ACID]
inhibition at 50 µM [1]: 60% | inhibition [2]: inactive | IC50 [3]: 38.3 µM | Activity [4]: Non-Toxic
